According to patent US20260083704A1, “LXR MODULATORS WITH BICYCLIC CORE MOIETY FOR TREATING DYSLIPIDEMIAS” (OrsoBio, Inc., priority 2022, published 2026):

Columns and labels:
LXRβ = target: T1, LXRβ (Homo sapiens, UniProt P55055); test: LXR Gal4 reporter transient transfection assay (mammalian two-hybrid, HEK293), LXRβ; format: cell-based; settings: ligand-binding domain (LBD) of LXRβ, HEK293; read-out: LBD-M2H Gal4β
T1 construct: LXRβ (amino acids 156-461); expressed in transfected cells; host or cells: HEK293
T1 sequence (P55055 156-460): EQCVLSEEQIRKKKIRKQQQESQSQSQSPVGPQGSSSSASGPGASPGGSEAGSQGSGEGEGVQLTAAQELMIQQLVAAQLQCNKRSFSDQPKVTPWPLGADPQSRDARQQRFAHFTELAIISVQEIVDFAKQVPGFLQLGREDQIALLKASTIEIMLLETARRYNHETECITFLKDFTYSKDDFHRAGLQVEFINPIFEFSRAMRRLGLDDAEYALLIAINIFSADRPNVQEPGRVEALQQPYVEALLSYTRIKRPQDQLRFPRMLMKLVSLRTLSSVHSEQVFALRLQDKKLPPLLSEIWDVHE
Procedure: LXRα and LXRβ activity status was determined via detection of interaction with coactivator and corepressor proteins in mammalian two-hybrid experiments (M2H). For this, via transient transfection the full length (FL) proteins of LXRα (amino acids 1-447; NP005684; SEQ ID NO:1) or LXRβ-(amino acids 1-461; NP009052; SEQ ID NO:2) or the ligand-binding domains (LBD) of LXRα (amino acids 155-447 SEQ ID NO:3) or LXRβ (amino acids 156-461; SEQ ID NO:4) were expressed from pCMV-AD (Stratagene) as fusions to the transcriptional activation domain of NFkB. As cofactors, domains of either the steroid receptor coactivator 1 (SRC1; amino acids 552-887; SEQ ID NO:5) or of the corepressor NCoR (amino acids 1906-2312; NP006302; SEQ ID NO:6) were expressed as fusions to the DNA binding domain of the yeast transcription factor GAL4 (from pCMV-BD; Stratagene). Interaction was monitored via activation of a coexpressed Firefly Luciferase Reporter gene under control of a promoter containing repetitive GAL4 response elements (vector pFRLuc; Stratagene). Transfection efficiency was controlled via cotransfection of constitutively active pRL-CMV Renilla reniformis luciferase reporter (Promega). HEK293 cells were grown in minimum essential medium (MEM) with 2 mM L-glutamine and Earle's balanced salt solution supplemented with 8.3% fetal bovine serum, 0.1 mM non-essential amino acids, 1 mM sodium pyruvate, at 37° C. in 5% CO2. 3.5×10^4 cells/well were plated in 96-well cell culture plates in growth medium supplemented with 8.3% fetal bovine serum for 16-20 h to ˜90% confluency. For transfection, medium was taken off and LXR and cofactor expressing plasmids as well as the reporter plasmids are added in 30 μL OPTIMEM/well including polyethylene-imine (PEI) as vehicle. Typical amounts of plasmids transfected/well: pCMV-AD-LXR (5 ng), pCMV-BD-cofactor (5 ng), pFR-Luc (100 ng), pRL-CMV (0.5 ng). Compound stocks were prepared in DMSO, prediluted in MEM to a total volume of 120 μL, and added 4 h after addition of the transfection mixture (final vehicle concentration not exceeding 0.2%). Cells were incubated for additional 16 h, lysed for 10 min in 1×Passive Lysis Buffer (Promega) and Firefly and Renilla luciferase activities were measured sequentially in the same cell extract using buffers containing D-luciferine and coelenterazine, respectively. Measurements of luminescence were done in a BMG-luminometer.
The potencies of Compound 21/3 and its analog, Compound pre-6/3, against LXRα and LXRβ were evaluated in biochemical binding assays, cellular mammalian two-hybrid (M2H) interaction assays evaluating nuclear receptor co-repressor (NCOR) recruitment, and cellular reporter assays evaluating transcriptional activity (Table 5).

[1] = target: T2, GST-LXRβ ligand-binding domain (Homo sapiens, UniProt P55055); test: TR-FRETβ activity assay (NCoA3 coactivator peptide recruitment); format: biochemical; settings: 1 μM 24(S)-25-epoxycholesterol prestimulation
T2 construct: amino acids 156-461; NP009052; made in house; host or cells: E. coli
T2 sequence (P55055 156-460 limits assumed): T1 sequence (P55055 156-460)
Method in brief: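 E. coli-expressed GST-LXRβ LBD (aa 156-461, 76 nM) with biotinylated NCoA3 peptide (400 nM) in Tris/HCl pH 6.8 containing 1 μM 24(S)-25-epoxycholesterol agonist. Compounds tested at 50 μM down to 0.002 μM in triplicate. TR-FRET (Tb cryptate/XL665, ex 340, em 615/665 nm) read after 1 h at 4° C.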

SMILES | EC50 (LXRβ) [nM] | EC50 [1] [nM]
CS(=O)(=O)c1ccccc1-c1c(-c2cccs2)n(S(=O)(=O)c2ccc(Cl)cc2)c2ccccc12 [20/5] | 100 to 1000 | 1000 to 10000
N#Cc1cc(F)ccc1-c1c(-c2cccs2)n(S(=O)(=O)c2ccc(Cl)cc2)c2ccccc12 [20/6] | < 100 | 100 to 1000
N#Cc1nccnc1-c1c(-c2cccs2)n(S(=O)(=O)c2ccc(Cl)cc2)c2ccccc12 [20/7] | < 100 | 1000 to 10000
N#Cc1sccc1-c1c(-c2cccs2)n(S(=O)(=O)c2ccc(F)cc2)c2ccccc12 [20/11] | < 100 | 100 to 1000
N#Cc1sccc1-c1c(-c2cccs2)n(S(=O)(=O)c2ccc(F)cc2F)c2ccccc12 [20/12] | < 100 | 1000 to 10000
N#Cc1sccc1-c1c(-c2cccs2)n(S(=O)(=O)c2ccc(Cl)cc2)c2ccccc12 [20/13] | < 100 | 100 to 1000
COC(=O)CCc1ccc(S(=O)(=O)n2c(-c3cccs3)c(-c3ccsc3C#N)c3ccccc32)cc1 [20/15] | 100 to 1000 | 100 to 1000
COc1ccc(S(=O)(=O)n2c(-c3ccccc3)c(C3=C(C#N)CCCC3)c3ccccc32)cc1 [20/16] | 100 to 1000 | 1000 to 10000
COc1ccc(S(=O)(=O)n2c(-c3ccccc3)c(-c3cc4ccccc4nc3C#N)c3ccccc32)cc1 [20/17] | 100 to 1000 | –
COc1ccc(S(=O)(=O)n2c(-c3ccccc3)c(-c3c(C#N)sc4ccccc34)c3ccccc32)cc1 [20/18] | < 100 | –
COc1ccc(S(=O)(=O)n2c(-c3ccccc3)c(C3=C(C#N)c4ccccc4CC3)c3ccccc32)cc1 [20/19] | 100 to 1000 | > 10000
COc1ccc(S(=O)(=O)n2c(-c3ccccc3)c(-c3ccc4ncccc4c3C#N)c3ccccc32)cc1 [20/20] | 100 to 1000 | 1000 to 10000
COc1ccc(S(=O)(=O)n2c(-c3ccccc3)c(-c3ccsc3C)c3ccccc32)cc1 [20/21] | < 100 | 1000 to 10000
COc1ccc(S(=O)(=O)n2c(-c3ccccc3)c(-c3ccsc3OC)c3ccccc32)cc1 [20/22] | 100 to 1000 | 100 to 1000
COc1ccc(S(=O)(=O)n2c(-c3ccccc3)c(-c3cc(C)sc3C#N)c3ccccc32)cc1 [20/23] | 100 to 1000 | 1000 to 10000
N#Cc1ccc(OCC(=O)O)cc1-c1c(-c2cccs2)n(S(=O)(=O)c2ccc(Cl)cc2)c2ccccc12 [21/1] | 1000 to 10000 | 1000 to 10000
N#Cc1c(OCC(=O)O)cccc1-c1c(-c2cccs2)n(S(=O)(=O)c2ccc(Cl)cc2)c2ccccc12 [21/2] | 1000 to 10000 | 1000 to 10000
N#Cc1sccc1-c1c(-c2cccs2)n(S(=O)(=O)c2ccc(CCC(=O)O)cc2)c2ccccc12 [23/1] | < 100 | 1000 to 10000
N#Cc1sccc1-c1c(-c2ccc(F)cc2)n(S(=O)(=O)c2ccc(Cl)cc2)c2ccccc12 [26/1] | < 100 | 1000 to 10000
Cc1ccc(S(=O)(=O)n2c(-c3cccc(-c4cccc(C(=O)O)c4)c3)c(-c3ccsc3C#N)c3ccccc32)cc1 [30/1] | < 100 | 100 to 1000
Cc1ccc(S(=O)(=O)n2c(-c3cccc(-c4cccc(C(C)(C)C(=O)O)c4)c3)c(-c3ccsc3C#N)c3ccccc32)cc1 [30/2] | 100 to 1000 | 1000 to 10000
Cc1ccc(S(=O)(=O)n2c(-c3cccc(-c4cncc(C(C)(C)C(=O)O)c4)c3)c(-c3ccsc3C#N)c3ccccc32)cc1 [30/3] | 100 to 1000 | –
N#Cc1sccc1-c1c(-c2cccc(CCCC(=O)O)c2)n(S(=O)(=O)c2ccc(Cl)cc2)c2ccccc12 [30/5] | < 100 | 1000 to 10000
N#Cc1sccc1-c1c(-c2cccc(N3CC(C(=O)O)C3)n2)n(S(=O)(=O)c2ccc(Cl)cc2)c2ccccc12 [30/6] | 100 to 1000 | 1000 to 10000
